Measured values published in ChEMBL document CHEMBL3507680, “University of Dundee, Gates Library screen for HepG2 cell viability”.

Assay: Human HepG2 cell viability assay in 384 well format
Assay type: toxicity, cell-based
Set-up: dose 125 nL, time 70.5 hour; cytotoxicity at 70.5 h: concentration not given beside the values
Conditions: HepG2 cells, read-out: Inhibition

Row | SMILES | cytotoxicity at 70.5 h [%]
1 | CC(C)(O)CN1CCN(C(=O)c2cc(Cl)cc3cccnc23)CC1 | -11.7
2 | O=C(CCc1ccc2c(c1)OCO2)N1CCCCC1Cn1cccn1 (stereo not drawn) | -8.55
3 | Cc1nc(CC(=O)N2CCn3c(nnc3C(C)C)C2)cs1 | -2.25
4 | Cn1ccc(NC(=O)Cc2ccccc2F)n1 | 19.9
5 | CC(C)c1nc(CN2CCCN(c3nccs3)CC2)no1 | 6.41
6 | O=C(NC1CCCC1)[C@H]1C[C@H]2OCC[C@H]2N(Cc2ccoc2)C1 | -4.07
7 | CN1CCN(Cc2cccc(C#N)c2)Cc2cccnc21 | -7.78
8 | COc1ncccc1CNC(=O)NCc1ccco1 | -1.48
9 | Cc1cc(C)n(CC2CCCN2C(=O)c2ccc3[nH]c(=O)[nH]c3c2)n1 (stereo not drawn) | -17.4
10 | O=C(N1CCOCC1)N1CCC2(CCNC2)C1 (stereo not drawn) | -3.15
11 | CS(=O)(=O)Cc1cccc(CNS(=O)(=O)c2ccc(F)c(F)c2)c1 | -8.75
12 | CCS(=O)(=O)N1CCC2(CCN(Cc3nccs3)CC2)CC1 | 15.2
13 | CCOc1ncccc1CNC(=O)Nc1ccc(CC)cc1 | -7.83
14 | CCc1c(C(=O)N2CCN(CC(N)=O)CC2)cnn1C(C)(C)C | -2.02
15 | O=C(N[C@@H]1CCC[C@@H](N2CCCC2)[C@@H]1O)c1cc2ccccc2[nH]1 | -8.28
16 | CC(CC(=O)N1CCCN(Cc2cscn2)CC1)n1cccc1 (stereo not drawn) | -6.05
17 | CCN(Cc1noc(C(C)(C)C)n1)Cc1ccc(C#N)cc1F | -6.26
18 | COCc1nnc(C(=O)N2CCC(N3CCCCC3)CC2)o1 | 16.4
19 | O=C(c1cccs1)N1CC[C@@H]2[C@H]1CCC(=O)N2c1ccccc1 | -16.9
20 | Cc1ccc(-c2cnc(CCC(=O)NCCN3CCOCC3)o2)cc1C | 2.52
21 | CC(C)CC(=O)N1CC(=O)N(CCc2ccccc2)CC(O)C1 (stereo not drawn) | 24
22 | CCc1ccc(CCNc2ncnc3c2CCN(C(=O)C2CC2)C3)cc1 | 7.48
23 | O=C(c1cscn1)N1CCCCC1c1nc2cc(F)ccc2[nH]1 (stereo not drawn) | -1.08

Row | SMILES | cytotoxicity at 70.5 h [%]
24 | CCC(NC(=O)c1cc(CC(C)C)nn1C)c1ccnn1C (stereo not drawn) | -10.3
25 | CC(C)(C)CN[C@@H]1CO[C@H](CNC(=O)c2cccs2)[C@H]1O | 4.02
26 | Cc1cc(C(=O)N2CCCC2CN2CCCC2)no1 (stereo not drawn) | 12.9
27 | CSCCN(C)Cc1ccc(F)cc1C#N | -4.74
28 | Fc1cccc(CN2CCC(c3cc4ncccc4cn3)CC2)c1F | 4.71
29 | CCN1CCN(S(=O)(=O)N2CCC(OC)CC2)[C@H]2CS(=O)(=O)C[C@H]21 | -9.02
30 | COc1ccc(C2OC(COc3ccccc3Br)=NN2C(C)=O)cc1 (stereo not drawn) | -6.79
31 | COc1cc(CNC(=O)N2CCCC2c2cc(C)no2)ccn1 (stereo not drawn) | -15.1
32 | CCc1nnsc1C(=O)N1CCOC(c2nc(C(C)C)n[nH]2)C1 (stereo not drawn) | -2.32
33 | CC/C=C(/C)C(=O)NCc1ccc(OC)nc1 | -13.3
34 | O=C1COc2ccc(C(=O)NS(=O)(=O)c3ccccc3F)cc2N1 | -8.64
35 | Cc1ccc(NC2CCN(C(=O)CCCc3cccs3)CC2)nn1 | -2.88
36 | Cc1n[nH]c(C)c1NC(=O)CN1CCCC(CNC(=O)C(C)(C)C)C1 (stereo not drawn) | 2.09
37 | CN(C1CCCCC1)S(=O)(=O)N1CCN(Cc2ccon2)CC1 | -9.52
38 | CC1=CCN(S(=O)(=O)c2cccc(C(=O)N3CCCN(C)CC3)c2)CC1 | -10.6
39 | Cc1noc([C@H]2C[C@H]3OCC[C@H]3N(S(=O)(=O)C3CC3)C2)n1 | -11.6
40 | O=S(=O)(c1cccs1)N1Cc2nc(CN3CCCCC3)oc2C1 | -8.94
41 | O=C(Cc1ccc2c(c1)CCO2)N1CCCC1Cn1cccn1 (stereo not drawn) | -4.67
42 | CN(CCCc1ccccc1)C(=O)c1cn2c(n1)CNCC2 | -3.6
43 | CC(=O)N[C@@H]1CN(S(=O)(=O)c2ccc(Cl)cc2)C[C@H]1O | -7.41
44 | Cc1c(C(=O)NC2(C#N)CCSC2)cnn1-c1ccccc1Cl (stereo not drawn) | 1.06
45 | O=C(c1cscn1)N1CCc2ncnc(-c3cccnc3)c2CC1 | 18.5
46 | COC[C@]1(O)CCN(c2cc(N3CCOCC3)ncn2)CC1(C)C | -9.52

Row | SMILES | cytotoxicity at 70.5 h [%]
47 | Cc1cn2nc(N3CCCCC3Cn3cccn3)sc2n1 (stereo not drawn) | 22.5
48 | CCCn1ncc(CN2CCCCC2CCCOC)c1C (stereo not drawn) | -2.59
49 | O=C(O)c1nnn(Cc2cccc(C(F)(F)F)c2)c1-c1ccccn1 | -7.66
50 | O=S(=O)(NC1CCOC1)c1ccc(C(F)(F)F)nc1 (stereo not drawn) | -2.28
51 | Cc1nn(C)cc1C1=NS(=O)(=O)N(C)C(C(=O)Nc2ccc(Cl)cc2)=C1 | 1.32
52 | CNC(=O)Cc1nc(CNc2ccc(SC)c(F)c2)cs1 | -0.256
53 | Cc1nc(CO[C@@H]2CN(Cc3ccsc3)[C@@H]3COC[C@@H]32)cs1 | -6.52
54 | O=C(NC1CC1)c1ccccc1NCc1cn2cccnc2n1 | -5.34
55 | CCOCCC1(C(=O)N2CCCC(c3ncc[nH]3)C2)CCCC1 (stereo not drawn) | -16.4
56 | CNc1ncc2c(n1)CN(Cc1ccc(Cl)cc1)C2=O | -9.81
57 | CCn1cc(CN(C)C(=O)C(c2ccccc2C)N(C)C)cn1 (stereo not drawn) | -1.5
58 | Cc1ccc(C)c(C(=O)Nc2ccc(OC3CCN(C)CC3)cc2)c1 | -6.52
59 | Cc1cc(C)cc(OCn2ccc(C(=O)O)n2)c1 | -10.3
60 | O=S(=O)(Nc1nccs1)c1cc(Cl)cc2c1OCC2 | 2.51
61 | Cc1cc(N2CCN(C(=O)C(C)n3ccnc3C(C)C)CC2)cc(C)n1 (stereo not drawn) | -4.34
62 | Cc1ccc(CCNC(=O)CC2COCCN2S(=O)(=O)N(C)C)s1 (stereo not drawn) | -11
63 | CCn1nc(C)c(CNC(=O)NCC(C)(O)c2ccccc2)c1C (stereo not drawn) | -3.1
64 | CN(C)C(=O)N1C[C@@H]2CC[C@H](C1)N(Cc1nnc(-c3ccco3)o1)C2 | 10.9
65 | Cc1cc(-c2nn3c(C4CCC4)nnc3s2)on1 | -7.88
66 | CC(C)N(C)Cc1nnc2n1CCCN(c1cnccn1)C2 | -4.42
67 | CN(C)Cc1nn(C)c2c1CN(S(=O)(=O)c1ccccc1F)C2 | -0.163
68 | Cc1ccc(Cn2c(=O)[nH]c3csnc3c2=O)cc1 | -13.9
69 | Cc1cccc(CC2CCCN(C(=O)C3CCOCC3)C2)n1 (stereo not drawn) | -8.54

Row | SMILES | cytotoxicity at 70.5 h [%]
70 | CC(Cc1ccc2c(c1)OCO2)c1cn(CCN2CCCC2)nn1 (stereo not drawn) | -12
71 | CCC(=O)N1CCCC1c1nccnc1Nc1nc(C)cc(C)n1 (stereo not drawn) | -14
72 | NC(=O)CCn1nnc(-c2cc3ccccc3o2)n1 | -13.1
73 | O=C1CCC2(CCCN(c3ncc(F)cn3)CC2)N1Cc1ccccc1 (stereo not drawn) | 1.63
74 | O=C(C1CCCC1)N1C[C@@H]2CCN(c3cccnc3)C[C@@H]2C1 | -11.4
75 | C[C@H]1C[C@@H]2CCN(C(=O)c3ccncc3)C[C@H]2O1 | -2.95
76 | Cc1ccoc1C(=O)N1C[C@@H](OCC2CC2)[C@H]2OCCC[C@H]21 | -1.01
77 | CCC(O)CN1CCN(C(=O)c2ccc3c(c2)COC3)CC1 (stereo not drawn) | 14.3
78 | Cc1ccc(CNc2cc(C(=O)N3CCOCC3)nc(C)n2)cc1 | -9.84
79 | CCN(CCN1CCOCC1)C(=O)c1cccnc1 | 4.89
80 | CC(C)(C)n1cc(C(=O)N2CCN(Cc3ccncc3)CC2)cn1 | -2.1
81 | Cc1n[nH]c(C)c1CCC(=O)NCC1COc2ccccc2C1 (stereo not drawn) | -2.08
82 | CC(C)CN1C(=O)C2(CCN(CC3CCOCC3)C2)c2ccccc21 (stereo not drawn) | -3.07
83 | CC(=O)Nc1nc(C(=O)NCc2ccc(N3CCCCC3)cc2)cs1 | -3.91
84 | O=C(NCc1ccco1)Nc1cccc(S(=O)(=O)C(F)F)c1 | -8.46
85 | CCC1(C(=O)O)CCCN(C(=O)c2ccc(N3CCN(C)CC3)cc2)C1 (stereo not drawn) | 21.4
86 | CNC(=O)CCc1cc(C2CCCN2C(=O)CO)nc(C)n1 (stereo not drawn) | -5.79
87 | CN1CCc2c(C#N)c(NCCCO)n3cnnc3c2C1 | -20.7
88 | CSc1ccccc1CN1CCCn2nc(CNC(=O)N(C)C)cc2C1 | -1.85
89 | O=C(NCc1cc[nH]n1)N1CCN(c2ncccn2)CC1 | -8.57
90 | COCCN(C)C[C@@H]1CCC[C@@H]2CN(Cc3ccc(OC)nc3)C[C@@H]21 | 0.0071
91 | O=C(c1cccc(NCc2cccc(F)c2)c1)N1CCC(O)CC1 | 10.8
92 | Cn1cc(C2(C)CN(Cc3ccc(N4CCCC4)nc3)CCO2)cn1 (stereo not drawn) | -10.5

Row | SMILES | cytotoxicity at 70.5 h [%]
93 | COc1cccc(-n2ccc3nc(N4CCCC4)ncc3c2=O)c1 | -4.05
94 | CCc1nnc(Sc2nn3cc(C)nc3s2)n1C | -2.38
95 | CNc1[nH]nc(N)c1C(=O)Nc1ccc(OC)cc1 | 1.52
96 | NC(=O)CSc1nnc2n1N=CN(c1ccccc1F)C2 | -6.75
97 | CNC(=O)N1CCC2(CC1)CN(C(C)C)Cc1cc(F)ccc12 | -2.71
98 | Cc1cc(C)n(C2CCN(Cc3c(-c4cc(C)on4)nn(C)c3Cl)C2)n1 (stereo not drawn) | -6.11
99 | COc1cc(N2CCc3ncnc(-c4ccoc4)c3CC2)ncn1 | -7.42
100 | c1cn(-c2cncc(C3CCNCC3)n2)cn1 | -6.9
101 | COc1ccc(C(C(=O)O)N2CCN(C3CCCC3)CC2)cc1OC (stereo not drawn) | 12.5
102 | Cc1cc(C2CCCN(C(=O)COc3ccc(F)cc3)C2)n[nH]1 (stereo not drawn) | -8.58
103 | Cc1nnc2n1CCN(C(=O)c1cc(C)n(-c3ccccn3)c1C)C2 | -14
104 | O=C(Cn1ncc(N2CCNCC2)cc1=O)NCCc1ccc(F)cc1 | -3.8
105 | CCc1cc(CNC(=O)N(C2CC2)C(C)c2ccco2)on1 (stereo not drawn) | 23.3
106 | CCN1CCC(c2nnc(CN3CCCC3)n2C2CC2)CC1 | -9.82
107 | CC(C)Oc1ncccc1CNC(=O)c1cc[nH]n1 | -7.86
108 | COc1ccc2c(c1)OCC(Cc1cc(N3CCCC3)cnn1)C2 (stereo not drawn) | 1.96
109 | CCn1c(CN2CCN(CCOC)CC2)nc2c(F)cccc21 | 2.86
110 | O=C(c1ccnnc1)N1C[C@H]2CCC[C@@]2(COCC2CCOCC2)C1 | -13
111 | CC(=O)N1CCCN(CCn2nc3ccccn3c2=O)CC1 | -0.882
112 | COCCN1CC[C@@H]2OC(COCC(=O)N3CCCC3)CC[C@@H]21 (stereo partly drawn) | -3.03
113 | O=C(NCC1CCOC1)c1ccc(OCC(F)(F)F)nc1 (stereo not drawn) | -5.4
